Assay results from patent US20130136691A1, “GASTRIN […] PEPTIDE COMPOUNDS” (priority 2008, published 2013).

Columns and labels:
[1] = tested on: GRP receptor binding in T47D human breast cancer cells; test: Effect of drug treatment on GRP receptor binding (177Lu-AMBA) and proliferation in T-47D cells; format: cell-based; details: for increase in 177Lu-AMBA binding (GRP receptor specific signal per cell) / decrease in 177Lu-AMBA binding (GRP receptor specific signal per cell): relative to untreated control; for increase in 177Lu-AMBA binding (GRP receptor specific signal per cell): drug 0.1-1.0 μM (gefitinib 0.1-10 μM); for GRP receptor specific signal per cell (177Lu-AMBA binding) versus untreated controls, in words: drug 0.1-1.0 μM (β2-estradiol 1 nM); for decrease in 177Lu-AMBA binding (GRP receptor specific signal per cell): drug 0.1-1.0 μM (4-OH Tamoxifen 0.001-0.1 μM); for change in 177Lu-AMBA binding (GRP receptor specific signal per cell), T47D: Table 25, range 0.001-0.1 μM, vs untreated controls
Text: T-47D breast cancer cells (human metastatic mammary gland ductal adenocarcinoma isolated from pleural effusion, ER+, PR+) were obtained from the American Type Culture Collection.

[2] = tested on: GRP receptor binding in PC-3 prostate cancer cells; test: Effect of drug treatment on GRP receptor binding (177Lu-AMBA) and proliferation in PC-3 cells; details: for decrease in 177Lu-AMBA binding (GRP receptor specific signal per cell): drug 0.1-1.0 μM (gefitinib 0.1-10 μM); for change in 177Lu-AMBA binding (GRP receptor specific signal per cell), PC-3: Table 25, range 0.001-0.1 μM, vs untreated controls; for GRP receptor specific signal per cell (177Lu-AMBA binding) versus untreated controls, in words: drug 0.1-1.0 μM (4-OH Tamoxifen 0.001-0.1 μM)
Protocol: (§1) RPMI 1640 supplemented with 20 mM HEPES, 0.1% BSA (w/v), 0.5 mM PMSF (AEBSF), bacitracin (50 mg/500 ml), pH 7.4.
(§2) Treatment: BT-474 cells were plated on Day 0 (see above); approximately 24-48 h after plating, treatment Days 1 and 2 (DT1, DT2), the medium was removed and replaced with fresh growth medium (control), or growth medium with the addition of lapatinib (0.1-1.0 μM). […] Incubations were stopped by the addition of 200 μL of ice-cold binding buffer. Plates were washed three more times with binding buffer, 140 μL of scintillation fluid was added to each well, the plates were sealed and analyzed on a Microp plate reader (Microbeta Trilux, Perkin-Elmer).
(§3) Treatment: BT-474 cells were plated on Day 0 and treated on Days 1 and 2 (DT1, DT2).

[3] = tested on: GRP receptor binding in BT-474 human breast cancer cells; test: Effect of drug treatment on GRP receptor binding (177Lu-AMBA) and proliferation in BT-474 cells; details: for GRP receptor specific signal per cell (177Lu-AMBA binding) versus untreated controls, in words: drug 0.1-1.0 μM (gefitinib 0.1-10 μM); for decrease in 177Lu-AMBA binding (GRP receptor specific signal per cell): relative to untreated control, drug 0.1-1.0 μM (4-OH Tamoxifen 0.001-0.1 μM); for change in 177Lu-AMBA binding (GRP receptor specific signal per cell), BT-474: Table 25, range 0.001-0.1 μM, vs untreated controls
Protocol: Cells for binding experiments were plated on Day 0 at 5.6×10^4 cells/cm^2 in 96-well white/clear bottom microtiter plates (Falcon Optilux-I), or 96 well black/clear collagen I cellware plates (Beckton Dickinson Biocoat).
as §1, §2, §3

NMB-R = target: T1, NMB-R (Rattus norvegicus, UniProt P24053); test: Competition with 125I-NMB for NMB-R in C6 cells; format: binding, rodent; details: cut off 10× the IC50 of [Tyr4]-BBN; for receptor subtype preference (GRP-R versus NMB-R): from IC50 with 125I-NMB on C6 cells and 125I-BBN on PC3 cells; for GRP-R and NMB-R (binds both with similar affinity): class from IC50 with 125I-NMB on C6 cells
T1 construct: C6, an NMB-R expressing rodent glioblastoma cell line; host or cells: C6 glioma cells (intact, plated)
T1 sequence (P24053 1-390): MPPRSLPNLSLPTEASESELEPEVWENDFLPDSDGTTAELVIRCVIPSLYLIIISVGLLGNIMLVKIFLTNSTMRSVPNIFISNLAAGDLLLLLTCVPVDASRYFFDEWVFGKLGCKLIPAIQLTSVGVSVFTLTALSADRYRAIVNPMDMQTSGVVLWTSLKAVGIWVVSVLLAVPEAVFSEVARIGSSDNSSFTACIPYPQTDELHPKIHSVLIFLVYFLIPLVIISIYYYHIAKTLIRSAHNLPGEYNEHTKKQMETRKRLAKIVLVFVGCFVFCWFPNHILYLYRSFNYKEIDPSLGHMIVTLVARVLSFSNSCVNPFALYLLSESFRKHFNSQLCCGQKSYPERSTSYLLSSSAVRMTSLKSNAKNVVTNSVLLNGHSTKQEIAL
Protocol: Two cell lines, C6, an NMB-R expressing rodent glioblastoma cell line and PC3, a GRP-R expressing human prostate cancer cell line, were used in this assay. The affinity of various unlabeled compounds for each receptor subtype (NMB-R and GRP-R) was determined indirectly by measuring its ability to compete with the binding of ^125I-NMB or ^125I-BBN to its corresponding receptors in C6 and PC3 cells.
Cells for the assays were plated at a concentration of 9.6×10^4/well in 48 well poly-lysine coated plates (Beckton Dickinson Biocoat). PC3 were obtained from ATCC(CRL-1435) and cultured in RPMI 1640 (ATCC) supplemented with 2 mM L-glutamine, 1.5 g/L Sodium bicarbonate, 10 mM HEPES and 10% FBS. […] PC3 cells for the assays were plated at a concentration of 2.0×10^4 cells/well in 96-well white/clear bottom plates (Falcon Optilux-I). Plates were used for the assays on day 2 of the post-plating.
RPMI 1640 (ATCC) containing 25 mM HEPES, 0.2% BSA fraction V, 1.0 mM AEBSF (CAS #3087-99-7) and 0.1% Bacitracin (CAS #1405-87-4), pH 7.4. Custom made ^125I-[Tyr°]NMB, >2.0 Ci/mole (Amersham Life Science) [^125I-NMB] and commercially available ^125I-[Tyr^4]BBN, >2.0 Ci/mole (Perkin Elmer Life Science) [^125I-BBN] were used as radioligands.
Using a 48-well plate assay system (for C6 study) competition experiments were performed using ^125I-NMB. […] Selection of compounds for the assay was based on linker subtype.
The binding parameters obtained from the studies were analyzed using a one-site competition non-linear regression analysis with GraphPad Prism. The relative affinity of various compounds for NMB-R in C6 cells were compared with those obtained using commercially available [Tyr^4]-BBN and [Tyro]-NMB. To distinguish the GRP-R preferring compounds from NMB-R plus GRP-R preferring compounds, IC50 values obtained for each compound were compared with those obtained from [Tyr^4-BBN with ^125I-NMB on C6 cells.

PC3 cells = test: Internalization and efflux assay in PC3 cells (125I-BBN, 177Lu complexes); format: cell-based, human; details: 37° C., 125I-BBN and Lu-177 complexes; for Efflux (2 h): after 40 min loading
Protocol: These studies were conducted in a 96-well plate. […] Incubations were stopped by the addition of 200 μl of ice-cold binding buffer. Plates were washed twice with binding buffer. To remove surface-bound radioligand, the cells were incubated with 0.2M acetic acid (in saline), pH 2.8 for 2 min. Plates were centrifuged and the acid wash media were collected to determine the amount of radioactivity which was not internalized. The cells were collected to determine the amount of internalized ^125I-BBN, and all samples were analyzed in the gamma counter. Data for the internalization assay was normalized by comparing counts obtained at the various time points with the counts obtained at the final time point (T=40 min).
For the efflux studies, after loading the PC3 cells with ^125I-BBN or radiolabeled compounds of the invention for 40 min at 37° C., the unbound material was filtered, and the % of internalization was determined as above. The cells were then resuspended in binding buffer at 37° C. for up to 3 h.

[4] = tested on: PC3 tumor-bearing nude mouse model; test: Radiotherapy efficacy studies (short and long term survival); format: in vivo; details: 177Lu labeled; for survival, Short Term Efficacy Study: 30 mCi/kg i.v. or s.c., versus untreated control and DO3A-monoamide-Aoc-QWAVGHLM-NH2 control; for survival, Long Term Efficacy Study: 30 mCi/kg, up to 120 days, n=46, p<0.0001 versus controls
Protocol: Radiotherapy studies were performed using the PC3 tumor-bearing nude mouse model. […] (n=12 for each treatment group for up to days, and n=36 for the pooled untreated control group for up to 31 days). […] The subjects were housed in a barrier environment for the duration of the study. Body weight and tumor size (by caliper measurement) were collected on each subject 3 times per week for the duration of the study. Criteria for early termination included: death; loss of total body weight (TBW) equal to or greater than 20%; tumor size equal to or greater than 2 cm^3.

[5] = PC-3, relative to untreated control

`C#Cc1cccc(Nc2ncnc3cc(OCCOC)c(OCCOC)cc23)c1` [erlotinib] was tested, and the “increase in 177Lu-AMBA binding (GRP receptor specific signal per cell)” value ([1]; T-47D) was 5-20%, the “decrease in 177Lu-AMBA binding (GRP receptor specific signal per cell)” value [2, 5] was 5-20% and the “GRP receptor specific signal per cell (177Lu-AMBA binding) versus untreated controls, in words” value ([3]; BT-474) was “no change”.
`CNC(=O)c1cc(Oc2ccc(NC(=O)Nc3ccc(Cl)c(C(F)(F)F)c3)cc2)ccn1` [sorafenib] was tested, and the “GRP receptor specific signal per cell (177Lu-AMBA binding) versus untreated controls, in words” value ([1]; T-47D) was “no change”, the “change in 177Lu-AMBA uptake on a viable cell basis, T47D” value ([1]; Table 24, drug 0.1-1.0 μM (gefitinib 0.1-10, bortezomib 0.001-0.1), vs untreated control) was “NC (NC: Little (<10%) or no change in Lu-AMBA uptake)” and the “decrease in 177Lu-AMBA binding (GRP receptor specific signal per cell)” value [2, 5] was 10-20%. For the same compound, the “decrease in 177Lu-AMBA binding (GRP receptor specific signal per cell)” value ([3]; BT-474) was 10-25%.
With “N-[4-[[[[4,7,10-Tris(carboxymethyl)-1,4,7,10-tetraazacyclododec-1-yl]acetyl]glycyl]amino]-3-methoxybenzoyl]-L-glutaminyl-L-tryptophyl-1-alanyl-L-valyl-glycyl-L-histidyl-L-leucyl-L-methioninamide [Compound L240]” the “receptor subtype preference (GRP-R versus NMB-R)” value (NMB-R) was “selective affinity to GRP-R”.
In the case of `Cc1ccc(NC(=O)c2ccc(CN3CCN(C)CC3)cc2)cc1Nc1nccc(-c2cccnc2)n1` [imatinib], the “increase in 177Lu-AMBA binding (GRP receptor specific signal per cell)” value ([1]; T-47D) is reported as “up to 15%”, the “decrease in 177Lu-AMBA binding (GRP receptor specific signal per cell)” value [2, 5] is reported as 15-25% and the “GRP receptor specific signal per cell (177Lu-AMBA binding) versus untreated controls, in words” value ([3]; BT-474) is reported as “no change”.
`CSCC[C@H](NC(=O)[C@H](CC(C)C)NC(=O)[C@H](Cc1c[nH]cn1)NC(=O)CNC(=O)[C@@H](NC(=O)[C@H](C)NC(=O)[C@H](Cc1c[nH]c2ccccc12)NC(=O)[C@H](CCC(N)=O)NC(=O)CC[C@@H](C)[C@H]1CC[C@H]2[C@@H]3CC[C@@H]4C[C@@H](NC(=O)CNC(=O)CN5CCN(CC(=O)O)CCN(CC(=O)O)CCN(CC(=O)O)CC5)CC[C@]4(C)[C@H]3C[C@H](O)[C@]12C)C(C)C)C(N)=O` [Compound L63, N-[(3β,5β,12α)-3-[[[[[4,7,10-Tris(carboxymethyl)-1,4,7,10-tetraazacyclododec-1-yl]acetyl]amino]acetyl]amino]-12-hydroxy-24-oxocholan-24-yl]-L-glutaminyl-L-tryptophyl-L-alanyl-L-valyl-glycyl-L-histidyl-L-leucyl-L-methioninamide] was tested, and the “GRP-R and NMB-R (binds both with similar affinity)” value (NMB-R) was “yes”, the “receptor subtype preference (GRP-R versus NMB-R)” value (NMB-R) was “dual affinity for both GRP-R and NMB-R” and the “Internalisation (40 minutes)” value (PC3 cells) was 64%. For the same compound, the “Efflux (2 h)” value (PC3 cells) was 0% and the “survival, Short Term Efficacy Study” value [4] was “increased survival”.
With “DO3A-monoamide-8-amino-octanoic acid-BBN (7-14)” the “Internalisation (40 minutes)” value (PC3 cells) was 89% and the “Efflux (2 h)” value (PC3 cells) was 28%.
For `CC(C)(C#N)c1cc(Cn2cncn2)cc(C(C)(C)C#N)c1` [anastrozole], the “decrease in 177Lu-AMBA binding (GRP receptor specific signal per cell)” value ([1]; T-47D) was “up to 10%”, the “decrease in 177Lu-AMBA binding (GRP receptor specific signal per cell)” value [2, 5] was “up to 10%” and the “GRP receptor specific signal per cell (177Lu-AMBA binding) versus untreated controls, in words” value ([3]; BT-474) was “no change”.
With “N-[4-[[[[[4,7,10-Tris(carboxymethyl)-1,4,7,10-tetraazacyclododec-1-yl]acetyl]amino]acetyl]amino]benzoyl]-L-glutaminyl-L-tryptophyl-L-alanyl-L-valyl-glycyl-L-histidyl-L-leucyl-L-methioninamide [Compound L70]” the “Internalisation (40 minutes)” value (PC3 cells) was 70%, the “Efflux (2 h)” value (PC3 cells) was 12% and the “survival, Short Term Efficacy Study” value [4] was “increased survival”. The “survival, Long Term Efficacy Study” value [4] was “significantly increased survival”.
For `CSCC[C@H](NC(=O)[C@H](CC(C)C)NC(=O)[C@H](Cc1c[nH]cn1)NC(=O)CNC(=O)[C@@H](NC(=O)[C@H](C)NC(=O)[C@H](Cc1c[nH]c2ccccc12)NC(=O)[C@H](CCC(N)=O)NC(=O)CC[C@@H](C)[C@H]1CC[C@H]2[C@@H]3[C@H](O)C[C@@H]4C[C@@H](NC(=O)CNC(=O)CN5CCN(CC(=O)O)CCN(CC(=O)O)CCN(CC(=O)O)CC5)CC[C@]4(C)[C@H]3C[C@H](O)[C@]12C)C(C)C)C(N)=O` [Compound L64, N-[(3β,5β,7α,12α)-3-[[[[[4,7,10-Tris(carboxymethyl)-1,4,7,10-tetraazacyclododec-1-yl]acetyl]amino]acetyl]amino]-7,12-dihydroxy-24-oxocholan-24-yl]-L-glutaminyl-L-tryptophyl-L-alanyl-L-valyl-glycyl-L-histidyl-L-leucyl-L-methioninamide], the “GRP-R and NMB-R (binds both with similar affinity)” value (NMB-R) was “yes”, the “receptor subtype preference (GRP-R versus NMB-R)” value (NMB-R) was “dual affinity for both GRP-R and NMB-R” and the “Internalisation (40 minutes)” value (PC3 cells) was 69%. The “Efflux (2 h)” value (PC3 cells) was 20%, the “survival, Short Term Efficacy Study” value [4] was “increased survival” and the “survival, Long Term Efficacy Study” value [4] was “significantly increased survival”.
`CC(C)C[C@H](NC(=O)[C@H](Cc1ccccc1)NC(=O)c1cnccn1)B(O)O` [bortezomib] was tested, and the “decrease in 177Lu-AMBA binding (GRP receptor specific signal per cell)” value ([1]; T-47D) was “up to 50%”, the “decrease in 177Lu-AMBA binding (GRP receptor specific signal per cell)” value [2, 5] was “up to 60%” and the “decrease in 177Lu-AMBA binding (GRP receptor specific signal per cell)” value ([3]; BT-474) was “up to 50%”.
`CC/C(=C(\c1ccc(O)cc1)c1ccc(OCCN(C)C)cc1)c1ccccc1` [Compounds 4-OH-Tamoxifen] was tested, and the “change in 177Lu-AMBA binding (GRP receptor specific signal per cell), T47D” value [1] was −35%, the “change in 177Lu-AMBA binding (GRP receptor specific signal per cell), PC-3” value [2] was 0% and the “change in 177Lu-AMBA binding (GRP receptor specific signal per cell), BT-474” value [3] was −73%.
With `COc1cc2ncnc(Nc3ccc(F)c(Cl)c3)c2cc1OCCCN1CCOCC1` [gefitinib] the “increase in 177Lu-AMBA binding (GRP receptor specific signal per cell)” value ([1]; T-47D) was “up to 20%”, the “decrease in 177Lu-AMBA binding (GRP receptor specific signal per cell)” value [2, 5] was 20-40% and the “GRP receptor specific signal per cell (177Lu-AMBA binding) versus untreated controls, in words” value ([3]; BT-474) was “no change”.
With `CS(=O)(=O)CCNCc1ccc(-c2ccc3ncnc(Nc4ccc(OCc5cccc(F)c5)c(Cl)c4)c3c2)o1` [lapatinib] the “decrease in cell proliferation” value ([1]; T-47D, at the highest concentration) was ≤ 35%, the “increase in 177Lu-AMBA binding (GRP receptor specific signal per cell)” value ([1]; T-47D) was “up to 50%” and the “proliferation versus untreated controls, in words” value ([2]; PC-3, 0.1-1.0 μM) was “no change”. The “GRP receptor specific signal per cell (177Lu-AMBA binding) versus untreated controls, in words” value ([2]; PC-3) was “no change” and the “decrease in cell proliferation” value ([3]; BT-474, at the highest concentration) was ≤ 65%.
With `C[C@]12CC[C@@H]3c4ccc(O)cc4CC[C@H]3[C@@H]1CC[C@@H]2O` [β2-estradiol] the “GRP receptor specific signal per cell (177Lu-AMBA binding) versus untreated controls, in words” value ([1]; T-47D) was “did not change”, the “change in 177Lu-AMBA binding (GRP receptor specific signal per cell), T47D” value [1] was 0% and the “GRP receptor specific signal per cell (177Lu-AMBA binding) versus untreated controls, in words” value ([2]; PC-3) was “no change”. The “change in 177Lu-AMBA binding (GRP receptor specific signal per cell), PC-3” value [2] was 0% and the “change in 177Lu-AMBA binding (GRP receptor specific signal per cell), BT-474” value [3] was 47%.
In the case of `CCN(CC)CCNC(=O)c1c(C)[nH]c(/C=C2\C(=O)Nc3ccc(F)cc32)c1C` [sunitinib], the “increase in 177Lu-AMBA binding (GRP receptor specific signal per cell)” value ([1]; T-47D) is reported as “up to 13%”, the “increase in 177Lu-AMBA binding (GRP receptor specific signal per cell)” value ([2]; PC-3, relative to untreated control, drug 0.1-1.0 μM) is reported as “up to 10%” and the “decrease in 177Lu-AMBA binding (GRP receptor specific signal per cell)” value ([3]; BT-474) is reported as “up to 8%”.
